pIC50: −log10 of the molar value.
Assays:
BRD4 protein = BRD4 protein (Homo sapiens (Human), UniProt O60885); assay: BRD4 protein degradation inducing action in cancer cells (immunofluorescence, Operetta); assay type: cell-based; details: LNCaP cells, 6 hr treatment, fluorescence intensity
Procedure, shortened: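 LNCaP prostate cancer cells in 10% FBS/RPMI1640 were exposed to compound for 6 hr at 37° C, then fixed, permeabilized and immunostained for BRD4 with Alexa Fluor 488 or 546 secondary antibodies plus Hoechst nuclear stain. Fluorescence was read by high-content imaging; DC50 is the concentration giving 50% of untreated signal, interpolated linearly between bracketing points.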

BRD4-1 (GST) = BRD4-1 (GST) (Homo sapiens (Human), UniProt O60885); assay: Inhibitory action on binding of BRD4 protein and acetylated histone H4, Test Method 2 (TR-FRET); details: Test Method 2, BRD4-1 (GST) and acetylated histone H4, TR-FRET
Experimental: The inhibitory action of the compound of the present invention on the binding of BRD4 protein and a ligand thereof (acetylated histone H4) was evaluated by the time-resolved fluorescence resonance energy transfer (TR-FRET) method using EPIgeneous™ Binding Domain Kit A (Cisbio), BRD4-1 (GST) (Reaction Biology Corp) and [Lys(Ac)5/8/12/16]-Histone H4(1-21)-GGK (Biotin) (Eurogentec). In this experiment, (+)-JQ1 known to have an inhibitory activity on the binding of BRD4 protein and acetylated histone H4 therefor was used as a positive control drug. A test compound dissolved DMSO was diluted with attached Diluent Buffer, added to a 384 well white plate, and BRD4-1 (GST) and [Lys(Ac)5/8/12/16]-Histone H4(1-21)-GGK (Biotin) were further added. Thereafter, Streptavidin-d2 conjugate and Anti-GST-Eu^3+ Cryptate Conjugate were added and the cells were incubated at room temperature for 3 hr. The binding amount of the BRD4 protein and acetylated histone H4 was measured as the fluorescence intensity (excitation: 314 nm/emission: 620 nm and excitation: 314 nm/emission: 665 nm). […] It was calculated from the straight line connecting the degradation rate at two points enclosing the 50% fluorescence intensity and the compound concentration.

[1] = system: human acute myeloid leukemia MV-4-11 cell transplanted mouse; assay: Antitumor effect in human acute myeloid leukemia MV-4-11 cell transplanted mouse; assay type: in vivo; details: MV4-11, iv, 360 h, read-out: tumor growth inhibitory rate
Experimental: The in vivo antitumor effect of the compound of the present invention was studied using human acute myeloid leukemia MV-4-11 cell transplanted mouse. MV-4-11 cells were subcutaneously transplanted into the inguinal region of male, 6-week-old BALB/c nude mouse (5×10^6 cells/mouse). The compound of the present invention was administered into the tail vein on days 1, 5, 9, 13 from the time point when the assumed tumor volume determined from 1/2ab^2 (a is major axis and b is minor axis of tumor) reached about 100 mm^3 (day 1). The control group was administered with a solvent, 10% hydroxypropyl-β-cyclodextrin solution. On day 15, the tumor was isolated, the weight was measured, and the tumor growth inhibitory rate IR (%) was calculated by the following formula. tumor growth inhibitory rate IR (%)=(1−tumor weight of administration group/tumor weight of nonadministration control group)×100

BRD4 bromodomain 1 = BRD4 bromodomain 1 (Homo sapiens (Human), UniProt O60885); assay: Inhibitory action on binding of BRD4 protein and ligand, Test Method 1 (TR-FRET, BRD4 bromodomain 1 TR-FRET Assay Kit); details: Test Method 1, BRD4 bromodomain 1 and ligand
Experimental: The inhibitory action of the compound of the present invention on the binding of BRD4 protein and a ligand thereof was evaluated by the time-resolved fluorescence resonance energy transfer (TR-FRET) method using BRD4 bromodomain 1 TR-FRET Assay Kit (Cayman). In this experiment, (+)-JQ1 known to have an inhibitory activity on the binding of BRD4 protein and a ligand therefor was used as a positive control drug. A test compound dissolved in DMSO was diluted with TR-FRET Assay Buffer, added to a 384 well black plate, BRD4 bromodomain 1 Europium Chelete was further added and the cells were incubated at room temperature for 15 min. Thereafter, BRD4 bromodomain 1 Ligand/APC Acceptor Mixture was added and the cells were incubated at room temperature for 1 hr. The binding amount of the BRD4 protein and ligand was measured as fluorescence intensity (excitation: 340 nm/emission: 620 nm and excitation: 340 nm/emission: 670 nm).
It was calculated from the straight line connecting the degradation rate at two points enclosing the 50% fluorescence intensity and the compound concentration.

Q: With `COC(=O)C[C@@H]1N=C(c2ccc(N3CC[C@@H](Oc4ccc5oc(C(=O)N[C@H](C(=O)N6C[C@H](O)C[C@H]6C(=O)N[C@@H](C)c6ccc(-c7scnc7C)cc6)C(C)(C)C)cc5c4)C3)cc2)c2c(sc(C)c2C)-n2c(C)nnc21` [Example 142, methyl [(6S)-4-{4-[(3R)-3-{[2-({(2S)-1-[(2S,4R)-4-hydroxy-2-({(1S)-1-[4-(4-methyl-1,3-thiazol-5-yl)phenyl]ethyl}carbamoyl)pyrrolidin-1-yl]-3,3-dimethyl-1-oxobutan-2-yl}carbamoyl)-1-benzofuran-5-yl]oxy}pyrrolidin-1-yl]phenyl}-2,3,9-trimethyl-6H-thieno[3,2-f][1,2,4]triazolo[4,3-a][1,4]diazepin-6-yl]acetate] as the compound, how does the DC50 (BRD4 protein) read?
A: 0.72 nM

Q: What about the pIC50 (BRD4-1 (GST)) of the same compound?
A: 6.96

Q: What about the inhibition in vivo at 3 mg/kg [1] of the same compound?
A: 97.4%

Q: `COC(=O)C[C@@H]1N=C(c2ccc(-c3ccc(OCC(=O)N[C@H](C(=O)N4C[C@H](O)C[C@H]4C(=O)N[C@@H](C)c4ccc(-c5scnc5C)cc4)C(C)(C)C)c(C#N)c3)cc2)c2c(sc(C)c2C)-n2c(C)nnc21` [Example 9, methyl [(6S)-4-{3′-cyano-4′-[2-({(2S)-1-[(2S,4R)-4-hydroxy-2-({(1S)-1-[4-(4-methyl-1,3-thiazol-5-yl)phenyl]ethyl}carbamoyl)pyrrolidin-1-yl]-3,3-dimethyl-1-oxobutan-2-yl}amino)-2-oxoethoxy][1,1′-biphenyl]-4-yl}-2,3,9-trimethyl-6H-thieno[3,2-f][1,2,4]triazolo[4,3-a][1,4]diazepin-6-yl]acetate] was tested. Which DC50 (BRD4 protein) did it give?
A: 0.15 nM

Q: What about the inhibition in vivo at 1 mg/kg [1] of the same compound?
A: 98.5%

Q: And the inhibition in vivo at 5 mg/kg [1]?
A: 98.4%

Q: And the pIC50 (BRD4 bromodomain 1)?
A: 7.33

Q: What does the source list for `COC(=O)C[C@@H]1N=C(c2ccc(-c3ccc(C(=O)N[C@H](C(=O)N4C[C@H](O)C[C@H]4C(=O)N[C@@H](C)c4ccc(-c5scnc5C)cc4)C(C)(C)C)c(Cl)c3)cc2)c2c(sc(C)c2C)-n2c(C)nnc21` [Example 157, methyl {(6S)-4-[3′-chloro-4′-({(2S)-1-[(2S,4R)-4-hydroxy-2-({(1S)-1-[4-(4-methyl-1,3-thiazol-5-yl)phenyl]ethyl}carbamoyl)pyrrolidin-1-yl]-3,3-dimethyl-1-oxobutan-2-yl}carbamoyl)[1,1′-biphenyl]-4-yl]-2,3,9-trimethyl-6H-thieno[3,2-f][1,2,4]triazolo[4,3-a][1,4]diazepin-6-yl}acetate]?
A: DC50 (BRD4 protein): 0.38 nM; pIC50 (BRD4-1 (GST)): 7.21; inhibition in vivo at 1 mg/kg [1]: 95.5%; inhibition in vivo at 3 mg/kg [1]: 98.2%

From patent publication US11542273B2, “Amide compound having bet proteolysis-inducing action and medicinal application thereof” (MITSUBISHI TANABE PHARMA CORPORATION, priority 2018, dated 2023)
